Source: patent EP2650284A1, “Heterocyclic derivatives as metabotropic glutamate receptor modulators” (Merz Pharma GmbH & Co. KGaA, priority 2012, dated 2013)
pEC50, pIC50: −log10 of the molar value. Where two headings read alike, the source gives them in different places.

Key:
[1] = target: T1, human metabotropic glutamate receptor mGluR5 (Homo sapiens, UniProt P41594); test: Cytosolic calcium studies with stably transfected cells (h5CHO), functional assay of mGluR5 receptors; format: cell-based; conditions: for pEC50: positive modulators, h5CHO cells preincubated with modulator, stimulated by an EC20 concentration of L-glutamate, read-out: hEC50
T1 construct: expressed in transfected cells; host or cells: CHO-K1 (h5CHO), IPTG-inducible
T1 sequence (P41594 21-1212): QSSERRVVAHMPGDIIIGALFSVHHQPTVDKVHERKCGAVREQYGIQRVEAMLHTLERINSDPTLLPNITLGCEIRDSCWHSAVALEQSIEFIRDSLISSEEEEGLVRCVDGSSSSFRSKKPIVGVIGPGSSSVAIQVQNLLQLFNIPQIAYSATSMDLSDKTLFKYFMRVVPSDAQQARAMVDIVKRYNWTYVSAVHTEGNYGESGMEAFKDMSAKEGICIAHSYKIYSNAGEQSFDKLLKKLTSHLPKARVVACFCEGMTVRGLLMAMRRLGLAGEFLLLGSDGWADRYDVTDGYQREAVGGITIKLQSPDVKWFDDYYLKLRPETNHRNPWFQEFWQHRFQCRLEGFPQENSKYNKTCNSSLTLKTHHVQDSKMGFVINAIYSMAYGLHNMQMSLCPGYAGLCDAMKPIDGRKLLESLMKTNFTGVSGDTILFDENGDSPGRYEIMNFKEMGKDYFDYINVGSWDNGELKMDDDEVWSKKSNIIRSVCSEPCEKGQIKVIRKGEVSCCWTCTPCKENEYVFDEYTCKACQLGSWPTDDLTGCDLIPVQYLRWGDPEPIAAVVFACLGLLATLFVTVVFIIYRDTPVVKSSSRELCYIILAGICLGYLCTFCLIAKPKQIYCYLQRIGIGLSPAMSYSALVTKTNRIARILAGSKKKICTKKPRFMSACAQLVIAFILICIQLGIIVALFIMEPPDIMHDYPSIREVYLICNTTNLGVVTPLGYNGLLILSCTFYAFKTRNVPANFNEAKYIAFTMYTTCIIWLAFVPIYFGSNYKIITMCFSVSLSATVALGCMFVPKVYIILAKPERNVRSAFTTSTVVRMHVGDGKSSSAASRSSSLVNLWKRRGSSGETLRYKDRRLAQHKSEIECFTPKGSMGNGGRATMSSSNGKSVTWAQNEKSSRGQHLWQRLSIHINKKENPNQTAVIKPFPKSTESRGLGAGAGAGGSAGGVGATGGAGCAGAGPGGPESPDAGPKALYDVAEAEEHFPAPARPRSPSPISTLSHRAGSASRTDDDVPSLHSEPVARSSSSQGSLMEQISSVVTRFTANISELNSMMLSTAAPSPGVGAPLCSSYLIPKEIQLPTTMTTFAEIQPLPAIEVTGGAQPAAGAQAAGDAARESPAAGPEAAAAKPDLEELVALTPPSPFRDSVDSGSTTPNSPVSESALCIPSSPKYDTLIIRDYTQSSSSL
Experimental: Chinese hamster ovary cells (CHO-K1 cells), stably transfected for inducible expression of a human metabotropic glutamate receptor mGluR5 to form a cell line called h5CHO, are seeded into black clear bottom 96 well plates at a density of 35.000 cells per well. The standard growth medium used (Dulbecco's modified Eagle Medium, DMEM plus L-proline) contains the appropriate inducer isopropyl-β-D-thiogalactopyranosid (IPTG) to achieve optimal receptor expression. One day after seeding the growth medium is exchanged for reconstituted Ca-Kit (Molecular Devices, USA) and incubated for one hour. Ca-Kit is reconstituted in an assay buffer containing 20 mM HEPES pH 7.4, glutamic-pyruvate transaminase, pyridoxal phosphate and sodium pyruvate in Hank's balanced salt solution (HBBS). Agonistic compounds to the receptor elicit increases in cytosolic calcium which can be measured as increases in fluorescence signals by use of a fluorescence imaging plate reader (Molecular Devices). To analyze their potency to negatively modulate the Ca-response test compounds, dissolved in a final DMSO concentration of 0.5%, are added on-line 5 minutes before the agonist to the receptor (L-quisqualic acid at a concentration giving ~80% of the maximal signal). EC50 values for positive allosteric modulators were determined by stimulating the cells which have been preincubated the modulators by an EC20 concentration of L-glutamate.
(§1) The fluorescence signal increase after addition of agonist reflects the increase of cytosolic calcium. Inconsistencies in the amount of cells per well are normalised by using the spatial uniformity correction of the FLIPR operating software Screenworks. The mean of replicated temporal data (n=3-5) is calculated and used for graphical representation. For the evaluation of the pharmacology, the calcium changes in response to different concentrations of agonist or antagonist are determined using a maximum minus minimum (MaxMin) calculation.
(§2) All responses (RFU-values) are determined as percentage of control (= maximum response). EC50 and IC50 are calculated according the logistic equation using XLFit (IDBS, UK) or Prism 4.0 (GraphPad Software, USA). The compounds of the present invention have a potency (EC50 or IC50) within a range of about 0.5 nM to about 100 µM. The left shifts for positive or slient allosteric modulators (PAMs or SAMs, respectively) are determined by comparison of EC50 values from agonist dose response curves run in the presence of 10 µM modulator or vehicle (Vanejevs et al., J. Med. Chem., 2008, 51, 634-647).

mGluR5 receptors = target: T2, mGluR5 receptors (Rattus norvegicus, UniProt P31424); test: Cytosolic calcium studies with astrocytes (FLIPR), functional assay of mGluR5 receptors; format: cell-based
T2 construct: Primary astrocyte cultures are prepared from cortices of newborn rats; endogenous in cells; host or cells: primary cortical astrocytes from Sprague-Dawley rat pups (2-4 d old)
T2 sequence (P31424 21-1203): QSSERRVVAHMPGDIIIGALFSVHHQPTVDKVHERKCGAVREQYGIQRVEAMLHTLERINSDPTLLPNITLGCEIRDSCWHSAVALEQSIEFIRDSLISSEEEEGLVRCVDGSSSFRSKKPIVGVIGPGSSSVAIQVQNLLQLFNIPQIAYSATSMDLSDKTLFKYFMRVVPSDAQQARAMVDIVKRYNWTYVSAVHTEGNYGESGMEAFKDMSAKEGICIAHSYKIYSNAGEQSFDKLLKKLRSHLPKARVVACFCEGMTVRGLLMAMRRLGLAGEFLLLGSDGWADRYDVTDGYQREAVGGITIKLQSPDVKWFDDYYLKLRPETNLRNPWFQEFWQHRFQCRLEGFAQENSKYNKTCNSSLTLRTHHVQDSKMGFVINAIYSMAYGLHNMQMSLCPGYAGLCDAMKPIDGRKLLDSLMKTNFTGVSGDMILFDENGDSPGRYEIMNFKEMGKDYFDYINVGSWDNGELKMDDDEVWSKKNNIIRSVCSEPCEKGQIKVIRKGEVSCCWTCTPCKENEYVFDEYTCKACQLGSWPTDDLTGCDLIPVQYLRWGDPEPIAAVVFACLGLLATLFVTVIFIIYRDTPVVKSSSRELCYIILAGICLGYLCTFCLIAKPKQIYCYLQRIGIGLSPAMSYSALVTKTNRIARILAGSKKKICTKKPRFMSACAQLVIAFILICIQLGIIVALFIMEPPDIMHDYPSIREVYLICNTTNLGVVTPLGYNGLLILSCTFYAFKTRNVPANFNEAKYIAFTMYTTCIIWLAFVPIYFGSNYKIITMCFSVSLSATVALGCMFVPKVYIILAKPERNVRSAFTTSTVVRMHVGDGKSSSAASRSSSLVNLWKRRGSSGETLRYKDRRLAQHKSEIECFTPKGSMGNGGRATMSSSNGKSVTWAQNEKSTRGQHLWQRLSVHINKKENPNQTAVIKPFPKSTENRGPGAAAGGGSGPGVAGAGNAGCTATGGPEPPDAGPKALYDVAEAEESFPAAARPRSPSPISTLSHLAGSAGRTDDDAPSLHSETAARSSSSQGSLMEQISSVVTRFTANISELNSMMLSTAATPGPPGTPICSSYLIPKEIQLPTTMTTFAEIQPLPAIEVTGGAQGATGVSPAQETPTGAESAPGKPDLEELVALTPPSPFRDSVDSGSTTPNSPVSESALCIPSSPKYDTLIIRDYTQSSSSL
Experimental: Primary astrocyte cultures are prepared from cortices of newborn rats as described by Booher and Sensenbrenner (1972, Neurobiology 2(3):97-105). Briefly, Sprague-Dawley rat pups (2 - 4 d old) are decapitated and neocortices are dissected, disintegrated with a nylon filter (pore size 80 µm) and carefully triturated. The cell suspension is plated on poly-D-lysine pre-coated flasks (Costar, Netherlands) and cultivated in Dulbecco's Modified Eagle's Medium (DMEM, Invitrogen, Germany) supplemented with 10% foetal calf serum (FCS, Sigma, Germany), 4 mM glutamine and 50 µg/ml gentamycin (both Biochrom, Germany) at 37°C in a humidified atmosphere of 5% CO2/ 95% air for 7 days with exchanging the medium at day 2 and 6.
After 7 days in vitro (DIV), cells are shaken overnight at 250 rpm to remove oligodendrocytes and microglia. The next day, astrocytes are rinsed twice with CMF-PBS (calcium- and magnesium-free phosphate buffered saline, Biochrom, Germany), trypsinized and subplated on poly-D-lysine pre-coated 96-well plates (Greiner, Germany) at a density of 40,000 cells/well. 24 h after establishing the secondary culture the astrocytes are rinsed with PBS^++ (phosphate buffered saline, Biochrom, Germany) and fed with astrocyte-defined medium (ADM) consisting of DMEM containing 1x G5-supplement (Invitrogen, Germany), 0.5 µg/ml heparan sulfate, and 1.5 µg/ml fibronectin (both Sigma, Germany) (Miller et al., (1993) Brain Res. 618(1):175-8). 3 days later the medium is exchanged and the cells incubated for another 2-3 days, so that at the time of experiments astrocytes are 14-15 DIV.
The increase of cytosolic calcium after stimulation with the mGluR5 agonist L-quisqualate is measured using a fluorometric imaging plate reader (FLIPR) and the Ca-Kit (both Molecular Devices). Prior to addition of agonist or antagonist the medium is aspirated and cells are loaded for 2 h at RT with 150 µl of loading buffer consisting of Ca-sensitive dye reconstituted in sodium chloride (123 mM), potassium chloride (5.4 mM), magnesium chloride (0.8 mM), calcium chloride (1.8 mM), D-glucose (15 mM), and HEPES (20 mM), pH 7.3. Subsequently, plates are transferred to FLIPR to detect calcium increase with the addition of L-quisqualate (100 nM) measured as relative fluorescence units (RFU). If antagonists are tested, these compounds are pre-incubated for 10 minutes at RT before addition of the respective agonist.
For positive modulators, concentration-response curves for quisqualate are performed in the presence and absence of 10 µM modulator to determine the extent of potentiation / agonist potency increase. Thereafter, concentration-response curves for the positive modulator are performed in the presence of a fixed concentration of quisqualate showing the biggest window for potentiation (normally 10-30 nM).
as §1, §2

[2] = Table A1, left shift of agonist EC50, dose response curves in the presence of 10 µM modulator or vehicle, h5CHO cells
[3] = Table A1, left shift of quisqualate EC50 in the presence and absence of 10 µM modulator
[4] = Table A1, positive modulators, fixed concentration of quisqualate (normally 10-30 nM), read-out: rEC50

SMILES	h left shift [1, 2]	pEC50 ([1]; Table A1)	r left shift (mGluR5 receptors; [3])	pEC50 (mGluR5 receptors; [4])	h left shift ([1]; Table A3 (SAMs / very weak PAMs), agonist EC50 shift with 10 µM modulator or vehicle, h5CHO cells)	r left shift (mGluR5 receptors; Table A3 (SAMs / very weak PAMs), quisqualate EC50 shift with 10 µM modulator)	pEC50 (mGluR5 receptors; Table A3, given in brackets where Ki is n.d., read-out: r EC50)	pIC50 ([1]; Table A2, negative modulation, compounds added 5 minutes before L-quisqualic acid (~80% of the maximal signal), h5CHO cells, read-out: hIC50)	pIC50 (mGluR5 receptors; Table A2, pre-incubated 10 minutes before L-quisqualate (100 nM), read-out: rIC50)
COC(=O)N1C2CCC1c1cc(C#Cc3ccccc3)cnc1C2 (racemic) [Example 58, (rac)-Methyl 3-(phenylethynyl)-6,7,8,9-tetrahydro-5H-5,8-epiminocyclohepta[b]pyridine-10-carboxylate]	2.3-fold	6.70	3.9-fold	6.95					
O=C1OC2(CCCc3ncc(C#Cc4ccccc4)cc32)CN1c1ccccc1 (racemic) [Example 12, (rac)-3-Phenyl-3'-(phenylethynyl)-7',8'-dihydro-6'H-spiro[oxazolidine-5,5'-quinolin]-2-one]	1.9-fold	6.02		6.07					
O=S(=O)(N1CCCCC1)N1CCc2ncc(C#Cc3ccccc3)cc2C1 [Example 54, 3-(Phenylethynyl)-6-(piperidin-1-ylsulfonyl)-5,6,7,8-tetrahydro-1,6-naphthyridine]	2.0-fold	6.14	2.5-fold	6.33					
CCCN1CC2(CCCc3ncc(C#Cc4ccccc4)cc32)OC1=O (racemic) [Example 82, (rac)-3'-(Phenylethynyl)-3-propyl-7',8'-dihydro-6'H-spiro[oxazolidine-5,5'-quinolin]-2-one]	1.9-fold	6.14	1.6-fold	6.63					
O=C1OC2(CCCc3ncc(C#Cc4cccc(F)c4)cc32)CN1c1ccccc1 (racemic) [Example 67, (rac)-3'-((3-Fluorophenyl)ethynyl)-3-phenyl-7',8'-dihydro-6'H-spiro[oxazolidine-5,5'-quinolin]-2-one]	2.1-fold	5.88	1.7-fold	7.05					
O=S(=O)(N1CCCCCC1)N1CCc2ncc(C#Cc3ccccc3)cc2C1 [Example 56, 6-(Azepan-1-ylsulfonyl)-3-(phenylethynyl)-5,6,7,8-tetrahydro-1,6-naphthyridine]	3.0-fold	6.30	3.3-fold	6.53					
O=C1OC2(CCCc3ncc(C#Cc4cccc(F)c4)cc32)CN1C1CC1 (racemic) [Example 76, (rac)-3-Cyclopropyl-3'-((3-fluorophenyl)ethynyl)-7',8'-dihydro-6'H-spiro[oxazolidine-5,5'-quinolin]-2-one]					1.6-fold	1.4-fold	7.30		
O=C(N1CCCCC1)N1CCc2ncc(C#Cc3ccccc3)cc2C1 [Example 50, (3-(Phenylethynyl)-7,8-dihydro-1,6-naphthyridin-6(5H)-yl)(piperidin-1-yl)methanone]	2.1-fold	6.07	1.9-fold						
N#Cc1cccc(C#Cc2cnc3c(c2)CN(C(=O)N2CCCCC2)CC3)c1 [Example 51, 3-((6-(Piperidine-1-carbonyl)-5,6,7,8-tetrahydro-1,6-naphthyridin-3-yl)ethynyl)benzonitrile]								6.13	5.63
COC(=O)N1CC2CCc3ncc(C#Cc4cccc(F)c4)cc3C2C1 (stereo not drawn) [Example 31, Methyl 8-((3-fluorophenyl)ethynyl)-3,3a,4,5-tetrahydro-1H-pyrrolo[3,4-f]quinoline-2(9bH)-carboxylate]	2.6-fold	6.48	1.5-fold	6.58					

Continued, values first:

h left shift [1, 2]	pEC50 ([1]; Table A1)	r left shift (mGluR5 receptors; [3])	pEC50 (mGluR5 receptors; [4])	h left shift ([1]; Table A3 (SAMs / very weak PAMs), agonist EC50 shift with 10 µM modulator or vehicle, h5CHO cells)	r left shift (mGluR5 receptors; Table A3 (SAMs / very weak PAMs), quisqualate EC50 shift with 10 µM modulator)	pEC50 (mGluR5 receptors; Table A3, given in brackets where Ki is n.d., read-out: r EC50)	pIC50 ([1]; Table A2, negative modulation, compounds added 5 minutes before L-quisqualic acid (~80% of the maximal signal), h5CHO cells, read-out: hIC50)	pIC50 (mGluR5 receptors; Table A2, pre-incubated 10 minutes before L-quisqualate (100 nM), read-out: rIC50)	SMILES
2.8-fold	7.60	2.8-fold	7.66						CCOC(=O)C(=O)N1CCc2ncc(C#Cc3ccccc3)cc2C1 [Example 77, Ethyl 2-oxo-2-(3-(phenylethynyl)-7,8-dihydro-1,6-naphthyridin-6(5H)-yl)acetate]
1.8-fold			5.49						O=C(N1CCC1)N1CCO[C@@H]2c3cc(C#Cc4ccccc4)cnc3CC[C@@H]21 (racemic) [Example 65, (rac)-cis-Azetidin-1-yl-(9-(phenylethynyl)-5,6-dihydro-2H-[1,4]oxazino[2,3-f]quinolin-4(3H,4aH,10bH)-yl)methanone]
2.6-fold	7.49	4.9-fold	7.64						COC1CCCc2ncc(C#Cc3ccccc3)cc21 (racemic) [Example 1, (rac)-5-Methoxy-3-(phenylethynyl)-5,6,7,8-tetrahydroquinoline]
1.7-fold		2.3-fold	7.93						O=C(N1CCc2ncc(C#Cc3ccccc3)cc2C1)N(CC(F)(F)F)CC(F)(F)F [Example 49, 3-(Phenylethynyl)-N,N-bis(2,2,2-trifluoroethyl)-7,8-dihydro-1,6-naphthyridine-6(5H)-carboxamide]
2.1-fold	7.19	4.2-fold	6.87						FC(F)(F)CN1CCO[C@@H]2c3cc(C#Cc4ccccc4)cnc3CC[C@@H]21 (racemic) [Example 24, (rac)-cis-9-(Phenylethynyl)-4-(2,2,2-trifluoroethyl)-3,4,4a,5,6,10b-hexahydro-2H-[1,4]oxazino[2,3-f]quinoline]
2.2-fold	6.62	1.3-fold	7.49						COC(=O)N1CC[C@H]2c3ncc(C#Cc4ccccc4)cc3CC[C@H]21 [Example 71, (6aR,9aR)-Methyl 3-(phenylethynyl)-6,6a,9,9a-tetrahydro-5H-pyrrolo[2,3-h]quinoline-7(8H)-carboxylate]
1.9-fold	6.73	2.6-fold	6.49						CCCN1CCO[C@@H]2c3cc(C#Cc4cccc(F)c4)cnc3CC[C@@H]21 (racemic) [Example 19, (rac)-cis-9-((3-Fluorophenyl)ethynyl)-4-propyl-3,4,4a,5,6,10b-hexahydro-2H-[1,4]oxazino[2,3-f]quinoline]
